Values of other authors, collected in article PMC9635817, “In vitro inhibition of acetylcholinesterase activity by yellow field pea (Pisum sativum) protein-derived peptides as revealed by kinetics and molecular docking” (Frontiers in Nutrition, 2022).

Test system: AChE

In the case of `COc1cc2c(cc1OC)[C@@H]1[C@H](O)[C@@H](OC)C=C3CCN(C2)[C@H]31` [galanthine], the “AChE-inhibitory IC50” value is listed as 1.96 µg/mL.
